Reference: article PMC11064505, “A nanochitosan-D-galactose formulation increases the accumulation of primaquine in the liver” (Antimicrobial Agents and Chemotherapy, 2024)

Legend:
[1] = in vivo; conditions: mouse
Description: All formulations were given by gavage with a final volume of 200 µL. At different intervals (0.5, 1, 2, 4, 8, and 24 hours), animals were subjected to anesthesia with a mixture of xylazine (10 mg/kg) and ketamine (100 mg/kg). Blood was collected by cardiac puncture, plasma was separated by centrifugation, RBCs were washed three times in saline, and plasma and RBC were stored at −20°C. After the animal was exsanguinated, the liver, lungs, and spleen were collected and frozen in liquid nitrogen until processed for primaquine quantification.
The extraction procedure was based on Carmo et al. ([22]) and Joshi and Devarajan ([23]). Briefly, 100 µL or 100 mg of the sample was transferred to a 1.5 mL microtube. Then, 100 µL of 2% acetic acid-acidified acetonitrile and 100 µL of ultrapure water were added. Next, the samples were homogenized for 1 minute using a vortex, and 50 µL of 12.5% zinc sulfate solution was added. The samples were homogenized again for 1 minute and left to stand for 20 minutes to ensure complete protein precipitation. After this period, the samples were centrifuged at 7,500 rpm for 15 minutes at room temperature. Finally, the supernatant was collected, and 20 µL was injected into the liquid chromatograph. This process was repeated to construct the eight-point calibration curves (0.39–50 µg/mL).
The primaquine concentrations in plasma, liver, lung, and spleen samples from mice treated with free primaquine were determined using high-performance liquid chromatography with a UV detector (HPLC-UV). Method validation followed orientations of the Guidance for Bioanalytical Method Validation from the Food and Drug Administration. The method was developed using a Waters liquid chromatography system with an Alliance e2695 Separation Module, quaternary pump, autosampler, degasser, column heater, and a dual channel UV–Vis detector (Milford, USA). The Empower 3 software was used for system control, peak integration, and data analysis. The separation was performed using an XBridge C18 reverse-phase column (150 × 4.6 mm, 5 µm) and an XBridge C18 reverse-phase pre-column (20 × 4.6 mm, 5 µm). For elution and identification of the primaquine, the mobile phase (MP) consisted of (A) potassium phosphate buffer (0.02 mol/L, pH = 3) and (Bi) acetonitrile. […] The flow rate of the MP was set at 1.0 mL/min, the column oven temperature was maintained at 35°C, and the UV detector was set at 266 nm. An injection volume of 20 µL was used, and the total run time was 13 minutes.
The physicochemical analyses of the nanoparticles were performed in triplicate and are expressed as the mean value ± SD. Statistical significance tests were applied through mixed-model analysis of variance, using Prism GraphPad Software. […] Non-compartmental pharmacokinetic analysis was conducted using PK Solutions 2.0 (Summit Research Services, Ashland, USA). The area under the concentration-time curve was calculated using the trapezoidal method (AUC0-t) from time zero to the last data point and extrapolated to infinity (AUC0-∞). The maximum plasma concentration (Cmax) and the time taken to reach Cmax (Tmax) were obtained from the experimental data. The elimination rate constant (K) was determined from the slope of the regression line, allowing the calculation of the elimination half-life (t1/2β) using the formula 0.693 /K ([24]). All data were presented as mean ± SD.

[2] = parameters: method as in PMID 16140485; conditions: 1 hour after intravenous administration in mice; cited from earlier work
[3] = parameters: method as in PMID 16968913, PMID 30379233, PMID 35709685; conditions: human treatment, clinical dose; cited from earlier work

COc1cc(NC(C)CCCN)c2ncccc2c1 (stereo not shown) [Pq, primaquine diphosphate]
Tmax ([1]; Swiss Webster, po, 10 mg/kg): 30 min | liver/plasma ratio for the volume of distribution ([1]; Swiss Webster, po, 10 mg/kg): 0.1 | primaquine concentrations in the liver, variation among animals ([1]; Swiss Webster, po, 10 mg/kg, 30 minutes): 3.5-110 µg of drug per 100 mg of tissue | Cmax ([1]; Swiss Webster, po, 10 mg/kg, primaquine concentrations in plasma (Cmax), variation among animals): 400 to 2000 ng/mL | Cmax of primaquine in the liver relative to the galactose-based nanoformulations [1]: about twice as much | uptake of the drug (recovery) in the liver [2]: 20% | Cmax in plasma [3]: around 0.1 µg/mL
